Patent US9315534B2, “Radiologic agents for monitoring alzheimer's disease progression and Evaluating a Response to Therapy and processes for the preparation of such agents” (BOARD OF REGENTS OF THE UNIVERSITY OF NEBRASKA, priority 2007, dated 2016)

What was measured:
[1] = Partition coefficient, shake-tube method, 1-octanol and water; assay type: physicochemical; conditions: 1-octanol/water; for Partition coefficient P avg (std dev): 19° C., 125I-labeled pure diastereomers
From the text: In order to reach intracerebral targets, drugs developed for diagnosis of the AD must be able to cross two barriers separating the central nervous system (CNS) from the periphery (Hansch et al. (1987) J. Pharm. Sci., 76:663-87.), the blood-brain barrier and the blood-cerebrospinal fluid barrier. Therefore the preliminary evaluation of the new drugs included partition coefficients. CNS agents that are highly lipid soluble with the log octanol-water partition coefficient between 1 and 3 have the equilibration half-times that are proportional to brain solubility (Atkinson et al. (2002) Curr. Med. Chem., 2:229-40; Dutta et al. (1998) Br. J. Anaesth., 81:422-4; Buchwald et al. (1998) Curr. Med. Chem., 5:353-80). Only pure SP and RP diastereomers were used. Ten μCi of each ^125I-labeled compound was added to 3 mL of water, the mixture was vortexed and 1-mL aliquots were transferred into fresh tubes. To each tube 1 mL of 1-octanol was added and the mixtures were vigorously vortexed until a homogenous suspension formed. At this point, the organic and water layers were separated by centrifugation at 19° C. Aliquots of each phase were gently removed and counted in a gamma counter in a triplicate. Typically, each KP was calculated as an average of n≧18.

BChE [2] = biological target: T1, BChE (Mus musculus, UniProt Q03311)
T1 sequence (Q03311 30-603): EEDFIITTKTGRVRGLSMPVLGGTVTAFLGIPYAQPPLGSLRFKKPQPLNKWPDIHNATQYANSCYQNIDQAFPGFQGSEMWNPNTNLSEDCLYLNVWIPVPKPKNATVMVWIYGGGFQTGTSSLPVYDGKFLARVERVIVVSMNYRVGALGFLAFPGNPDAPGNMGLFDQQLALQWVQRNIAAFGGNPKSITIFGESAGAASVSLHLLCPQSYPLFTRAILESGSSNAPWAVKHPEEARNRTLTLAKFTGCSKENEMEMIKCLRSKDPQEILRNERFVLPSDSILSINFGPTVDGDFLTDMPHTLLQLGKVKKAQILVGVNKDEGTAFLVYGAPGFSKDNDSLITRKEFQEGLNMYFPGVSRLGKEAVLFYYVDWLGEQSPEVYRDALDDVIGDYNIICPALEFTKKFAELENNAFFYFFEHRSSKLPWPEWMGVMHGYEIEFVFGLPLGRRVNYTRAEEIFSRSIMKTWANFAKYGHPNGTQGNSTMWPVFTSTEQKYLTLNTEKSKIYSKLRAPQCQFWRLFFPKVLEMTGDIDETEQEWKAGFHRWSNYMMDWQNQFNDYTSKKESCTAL
Experimental: Biodistribution studies were also conducted on 3, another BChE-binding derivative, in AD mouse and in normal controls. This study of 3 was conducted in >12-months old AD mice and matching control mice. All mice received IV 10 μCi of 3. Mice were killed 48 hours later. Tissues were collected and their radioactive content determined in a γ counter. One-half of each brain was fixed. The radioactivity in the other half was counted in a γ counter.

BChE [3] = biological target: T1, BChE; conditions: IV 0.5 mCi, 48 hours
Experimental: FIG. 7 provides images of microautoradiography of brain sections of AD mouse treated with IV dose of 0.5 mCi 3. Mouse was killed 48 hours after the administration of 3. Counterstained H&E; 10×.
FIG. 8 provides a microautoradiography of brain sections of the matching control mouse also treated with IV doses of 0.5 mCi 3. Mouse was killed 48 hours after the administration of 3. Counterstained H&E; 10×.
FIG. 9 provides an image of a section of brain from control mouse treated with 3 48 hours before necropsy. 100×; H&E.
FIG. 10 provides images of brain sections from AD mouse 48 hours after IV dose of 0.5 mCi 3. […] FIG. 10D: Cross-section of a blood vessel containing red blood cells surrounded by silver grains corresponding to circulating 3.
FIG. 8 is the corresponding section of a brain from a matched control mouse treated in the same manner. […] Imperfections in focus are because brain sections and silver grains are in different planes, tissue section vs. emulsion.

[4] = Solubility in water, buffers and physiologically appropriate solvents
AChE = AChE (Bos taurus, UniProt P23795); conditions: SDS-PAGE autoradiogram
Chain of AChE (P23795 31-613): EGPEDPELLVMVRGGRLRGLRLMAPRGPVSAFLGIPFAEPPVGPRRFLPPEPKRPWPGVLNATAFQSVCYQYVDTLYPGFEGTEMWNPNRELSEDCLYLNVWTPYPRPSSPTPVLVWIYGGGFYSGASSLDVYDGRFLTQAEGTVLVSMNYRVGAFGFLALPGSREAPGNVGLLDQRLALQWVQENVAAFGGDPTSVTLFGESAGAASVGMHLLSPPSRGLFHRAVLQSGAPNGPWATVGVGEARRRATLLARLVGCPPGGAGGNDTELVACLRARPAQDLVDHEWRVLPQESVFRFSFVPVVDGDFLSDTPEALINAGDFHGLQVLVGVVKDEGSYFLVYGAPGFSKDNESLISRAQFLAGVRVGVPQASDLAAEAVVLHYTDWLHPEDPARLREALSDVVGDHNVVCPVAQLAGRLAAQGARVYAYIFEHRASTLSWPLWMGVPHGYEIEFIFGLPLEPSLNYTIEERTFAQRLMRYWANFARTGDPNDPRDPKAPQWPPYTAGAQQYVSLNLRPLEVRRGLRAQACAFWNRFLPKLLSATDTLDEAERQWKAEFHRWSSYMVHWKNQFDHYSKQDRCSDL
Experimental: Lanes 1, 2: BChE-containing mouse serum incubated with 2a in (1) PBS+DMSO; (2) PBS+0.1% Triton X100+DMSO. Lanes 3-5: AChE-only containing bovine serum incubated with 2a in (3) DMSO; (4) PBS+DMSO; (5) PBS+0.1% Triton X-100+DMSO.

BChE [5] = biological target: T1, BChE; conditions: for activity in head of AD mouse, planar image: 1 hour after tail vein IV 0.5 mCi
Experimental: Two sets of preliminary biodistribution studies were conducted: (1) in normal athymic mice to determine general biodistribution and the brain uptake; and (2) in at least ˜7-14 months old APPswe mice (strain B6C3-Tg(APPswe,PSEN1dE9)85 Dbo/J; abbreviated as AD mice in the text below). JAX® GEMM® Strain wildtype mice from the colony were used as the control. B6C3-Tg(APPswe,PSEN1dE9) 85 Dbo/J is a double transgenic mice expressing chimeric mouse/human amyloid precursor protein(Mo/Hu APP695swe) and a mutant human presenilin 1(PS1-dE9) both directed to CNS neurons. Both mutations are associated with the early onset AD. Aβ plaques are produced in these mice in hippocampus and cortex by 9 months of age with the occasional deposits found in mice as young as 6 months of age (Jankowsky et al. (2004) Hum. Mol. Genet., 13:159-70; Garcia-Alloza et al. (2006) Neurobiol. Dis., 24:516-524). Planar imaging was done using a pinhole gamma camera. […] In both images mice are positioned with the dorsal surface of the mouse facing the pinhole collimator. […] There were 6 mice per each time point.

## O=c1[nH]c(=O)n(C2CC(O)C(COP3(=O)OCc4ccccc4O3)O2)cc1[125I] (stereo not drawn) [Compound 3b]
[1]
  log P: 0.652
  Partition coefficient P avg (std dev): 4.49 (0.25)

## O=c1[nH]c(=O)n(C2CC(O)C(COP3(=O)OCc4ccccc4O3)O2)cc1[125I] (mixture of isomers) [Compound 3]
BChE [2]; 48 hours after IV
  brain uptake AD mice compared to wildtype controls: ~3 times
BChE [2]; >12-months old AD mice, IV 10 μCi, 48 hours
  brain uptake in AD mice: 0.085±0.008 % ID/g
BChE [2]; control mice, IV 10 μCi, 48 hours
  brain uptake in matching wildtype controls: 0.030±0.011 % ID/g
BChE [3]; AD mouse
  clusters of radioactivity in brain of AD mice: large clusters of radioactivity
BChE [3]; control mouse
  clusters of radioactivity in brains of control mice: practically absent

## CC(C)(C)c1cc(C(C)(C)C)c2c(c1F)COP(=O)(OCC1OC(n3cc([125I])c(=O)[nH]c3=O)CC1O)O2 (stereo not drawn) [Compound 2a]
[4]
  solubility in buffers and other physiologically appropriate solvents: low
AChE
  binding to bovine serum (AChE, no BChE): complete absence
BChE [5]
  activity in head of AD mouse, planar image: accumulation of 2a in the head of the AD mouse
BChE [5]; AD mice, IV, all time points, 6 mice per time point
  percent injected dose per gram brain, 2a versus 2b: significantly higher

## O=c1[nH]c(=O)n(C2CC(O)C(COP3(=O)OCc4ccccc4O3)O2)cc1[125I] (stereo not drawn) [Compound 3a]
[1]
  log P: 0.623
  Partition coefficient P avg (std dev): 4.19 (0.12)

## Cc1cccc2c1OP(=O)(OCC1OC(n3cc([125I])c(=O)[nH]c3=O)CC1O)OC2 (stereo not drawn) [Compound 4a]
[1]
  log P: 0.857
  Partition coefficient P avg (std dev): 7.19 (0.37)

## CC(C)(C)c1cc(C(C)(C)C)c2c(c1F)COP(=O)(OCC1OC(n3cc([125I])c(=O)[nH]c3=O)CC1O)O2 (stereo not drawn) [Compound 2b]
BChE [5]
  activity in head of AD mouse, planar image: only the background level of activity

## Cc1cccc2c1OP(=O)(OCC1OC(n3cc([125I])c(=O)[nH]c3=O)CC1O)OC2 (stereo not drawn) [Compound 4b]
[1]
  log P: 0.846
  Partition coefficient P avg (std dev): 7.02 (0.34)
